Test results taken from the supplement of paper PMC10331698.
± gives the standard deviation of the averaged measurements.

What was measured:
Assay in all cases: level (log10 ratio to DMSO vehicle control); higher = higher biomarker level / cell amount than vehicle control
Conditions in all cases: in DMSO
[1] = compound: CCN(CCO)S(=O)(=O)C(F)(F)C(F)(F)C(F)(F)C(F)(F)C(F)(F)C(F)(F)C(F)(F)C(F)(F)F [N-Ethyl-N-(2-hydroxyethyl)perfluorooctanesulfonamide]
Method: (§1)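 BioMAP Diversity Plus panel of 12 human primary cell co-culture systems (3C, 4H, LPS, SAg, BT, BF4T, BE3C, CASM3C, HDF3CGF, KF3CT, MyoF, Mphg). Compounds were added 1 h before stimulation and left for 24 h (MyoF 48 h; BT 72 h for soluble read-outs or 6 d for IgG). Biomarkers were read by ELISA, cytotoxicity by SRB, PBMC viability and proliferation by Alamar Blue. Each well value was divided by the mean of 8 DMSO control wells on the same plate and log10 transformed; duplicate blinded samples were tested at 4 concentrations.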

[2] = compound: OCCC(F)(F)C(F)(F)C(F)(F)C(F)(F)C(F)(F)C(F)(F)F [6:2 Fluorotelomer alcohol]
Method: as §1

[3] = compound: NCC(F)(F)C(F)(F)C(F)(F)C(F)(F)C(F)(F)C(F)(F)C(F)(F)F [1H,1H-Perfluorooctylamine]
Method: as §1

[4] = compound: FC(F)(F)C(F)(F)C(F)(F)C(F)(F)C(F)(F)CCI [1-Iodo-1H,1H,2H,2H-perfluoroheptane]
Method: as §1

[5] = compound: COC(=O)CCC(F)(F)C(F)(F)C(F)(F)C(F)(F)F [Methyl 2H,2H,3H,3H-perfluoroheptanoate]
Method: as §1

[6] = compound: O=C(O)C(F)(F)C(F)(F)C(F)(F)C(F)(F)C(F)(F)C(F)(F)C(F)(F)C(F)F [9-H-Perfluorononanoic acid]
Method: as §1

[7] = compound: FC(F)(F)C(F)(F)C(F)(F)C(F)(F)C(F)(F)C(F)(F)C(F)(F)C(F)(F)CCS [2-(Perfluorooctyl)ethanthiol]
Method: as §1

Row | Test System | level (log10) ([1]; 6700 nM) | level (log10) ([1]; 20000 nM) | level (log10) ([2]; 6700 nM) | level (log10) ([2]; 20000 nM) | level (log10) ([3]; 6700 nM) | level (log10) ([3]; 20000 nM) | level (log10) ([3]; 60000 nM) | level (log10) ([4]; 6700 nM) | level (log10) ([4]; 20000 nM) | level (log10) ([4]; 60000 nM) | level (log10) ([5]; 6700 nM) | level (log10) ([5]; 20000 nM) | level (log10) ([5]; 60000 nM) | level (log10) ([6]; 6700 nM) | level (log10) ([6]; 20000 nM) | level (log10) ([6]; 60000 nM) | level (log10) ([7]; 6700 nM) | level (log10) ([7]; 20000 nM)
1 | KF3CT:PAI-I | -0.0995 ± 0.011 | -0.193 ± 0.014 | -0.0155 ± 0.0035 | -0.0035 ± 0.011 | -0.0025 ± 0.005 | -0.001 ± 0.0014 | 0.003 ± 0.014 | -0.007 ± 0.02 | -0.014 ± 0.0071 | -0.0245 ± 0.028 | -0.01 ± 0.013 | -0.009 ± 0.0042 | -0.0105 ± 0.0092 | -0.0045 ± 0.0035 | 0.007 ± 0.0071 | 0.003 ± 0.0085 | -0.04 | -0.0425 ± 0.023
2 | MyoF:Collagen I | 0.042 ± 0.0028 | -0.155 ± 0.029 | -0.0015 ± 0.0064 | -0.003 ± 0.011 | 0.012 ± 0.014 | -0.016 ± 0.0042 | 0.013 ± 0.021 | -0.0065 ± 0.012 | 0.007 ± 0.0042 | 0.0375 ± 0.0035 | 0.0055 ± 0.016 | 0.0035 ± 0.011 | -0.004 ± 0.021 | 0.0035 ± 0.0021 | 0.0025 ± 0.0035 | -0.0365 ± 0.0092 | -0.001 ± 0.042 | -0.0265 ± 0.029
3 | CASM3C:SRB | -0.0265 ± 0.0078 | -0.097 ± 0.014 | 0.0075 ± 0.005 | -0.003 ± 0.0028 | -0.002 ± 0.0028 | -0.001 ± 0.013 | 0.0035 ± 0.018 | 0.0035 ± 0.0021 | -0.0075 ± 0.0078 | -0.024 ± 0.0028 | 0.003 ± 0.0042 | -0.003 ± 0.013 | -0.0015 ± 0.0035 | 0.0045 ± 0.005 | 0.0035 ± 0.0035 | -0.001 ± 0.0057 | 0.002 ± 0.0085 | 0.0095 ± 0.0064
4 | BE3C:SRB | -0.0175 ± 0.011 | -0.04 ± 0.0071 | -0.0025 ± 0.0021 | -0.0045 ± 0.0021 | 0 | 0.0035 ± 0.00071 | 0.013 ± 0.024 | -0.003 ± 0.0057 | -0.0105 ± 0.0021 | -0.0085 ± 0.012 | -0.004 ± 0.0028 | -0.0015 ± 0.0021 | 0.002 | -0.0075 ± 0.0035 | -0.007 ± 0.0057 | -0.0105 ± 0.0035 | 0.0055 ± 0.0092 | 0.0095 ± 0.005
5 | CASM3C:Proliferation | 0.011 ± 0.04 | -0.175 ± 0.005 | -0.004 ± 0.021 | -0.0205 ± 0.023 | 0.0025 ± 0.012 | 0.005 ± 0.016 | -0.0095 ± 0.0092 | -0.034 ± 0.0071 | -0.101 ± 0.062 | -0.106 ± 0.054 | -0.001 ± 0.0028 | -0.038 ± 0.0042 | 0.0025 ± 0.0035 | 0.012 ± 0.011 | -0.016 ± 0.013 | 0.028 ± 0.088 | 0.006 ± 0.0071 | -0.0105 ± 0.053
6 | HDF3CGF:TIMP-2 | 0.136 ± 0.0057 | 0.108 ± 0.0071 | -0.007 ± 0.025 | 0.004 ± 0.021 | -0.03 ± 0.059 | -0.013 ± 0.052 | -0.0245 ± 0.016 | 0.0155 ± 0.023 | 0.004 ± 0.033 | -0.019 ± 0.035 | 0.0295 ± 0.019 | -0.0065 ± 0.03 | 0.0195 ± 0.043 | -0.07 ± 0.086 | -0.0755 ± 0.028 | -0.0595 ± 0.049 | -0.0305 ± 0.073 | -0.0265 ± 0.069
7 | HDF3CGF:CXCL10/IP-10 | -0.0725 ± 0.05 | -0.206 ± 0.0057 | -0.009 ± 0.0099 | -0.0295 ± 0.0092 | 0.0115 ± 0.03 | -0.006 ± 0.011 | -0.0005 ± 0.00071 | -0.011 ± 0.0099 | -0.053 ± 0.0071 | -0.11 ± 0.023 | -0.011 ± 0.0085 | 0.006 ± 0.016 | -0.026 ± 0.0071 | -0.0535 ± 0.016 | -0.023 ± 0.02 | -0.052 ± 0.017 | -0.027 ± 0.025 | -0.0495 ± 0.005
8 | BE3C:tPA | 0.142 ± 0.0099 | -0.036 ± 0.058 | -0.0135 ± 0.018 | -0.004 ± 0.0057 | -0.035 ± 0.016 | -0.001 ± 0.034 | -0.0145 ± 0.028 | -0.0055 ± 0.074 | 0.0465 ± 0.073 | 0.0495 ± 0.047 | -0.006 ± 0.02 | -0.016 ± 0.014 | 0.0005 ± 0.0078 | 0.075 ± 0.023 | 0.0285 ± 0.019 | 0.002 ± 0.025 | 0.0105 ± 0.0064 | 0.0165 ± 0.016
